Source: ChEMBL document CHEMBL1201862, “PubChem BioAssay data set” (2004)
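Cultured in 96-well plates, cells were exposed to test compound for 48 hours across five concentrations. GI50 marks 50% less growth.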 Active and inactive are the calls of the source. No stated cut-off is given here; in the data, active = GI50 up to about 1.1 µM and inactive = higher.

Tests used:
Assay in all cases: DTP human tumour cell line panel, 48 h
786-0 = tested on: 786-0
A498 = tested on: A498
A549 = tested on: A549
ACHN = tested on: ACHN
CAKI-1 = tested on: CAKI-1
CCRF-CEM = tested on: CCRF-CEM
COLO 205 = tested on: COLO 205
DLD-1 = tested on: DLD-1
DMS-114 = tested on: DMS-114
DMS-273 = tested on: DMS-273
HCC 2998 = tested on: HCC 2998
HCT-116 = tested on: HCT-116
HCT-15 = tested on: HCT-15
HL-60 = tested on: HL-60
HOP-18 = tested on: HOP-18
HOP-62 = tested on: HOP-62
HOP-92 = tested on: HOP-92
HT-29 = tested on: HT-29
IGROV-1 = tested on: IGROV-1
K562 = tested on: K562
KM-20L2 = tested on: KM-20L2
LOX IMVI = tested on: LOX IMVI
LXFL 529 = tested on: LXFL 529
M14 = tested on: M14
M19-MEL = tested on: M19-MEL
MOLT-4 = tested on: MOLT-4
Malme-3M = tested on: Malme-3M
NCI-H226 = tested on: NCI-H226
NCI-H23 = tested on: NCI-H23
NCI-H460 = tested on: NCI-H460
OVCAR-3 = tested on: OVCAR-3
OVCAR-4 = tested on: OVCAR-4
OVCAR-5 = tested on: OVCAR-5
OVCAR-8 = tested on: OVCAR-8
RPMI-8226 = tested on: RPMI-8226
SF-268 = tested on: SF-268
SF-295 = tested on: SF-295
SK-MEL-28 = tested on: SK-MEL-28
SK-MEL-5 = tested on: SK-MEL-5
SK-OV-3 = tested on: SK-OV-3
SN12C = tested on: SN12C
SNB-19 = tested on: SNB-19
SR = tested on: SR
SW-620 = tested on: SW-620
TK-10 = tested on: TK-10
U-251 = tested on: U-251
UACC-257 = tested on: UACC-257
UACC-62 = tested on: UACC-62
UO-31 = tested on: UO-31
KM12 = tested on: KM12
NCI-H522 = tested on: NCI-H522
SF-539 = tested on: SF-539
SK-MEL-2 = tested on: SK-MEL-2
SNB-75 = tested on: SNB-75
XF498 = tested on: XF498
BT-549 = tested on: BT-549
DU-145 = tested on: DU-145
EKVX = tested on: EKVX
Hs-578T = tested on: Hs-578T
MDA-MB-231 = tested on: MDA-MB-231
MDA-MB-435 = tested on: MDA-MB-435
MDA-N = tested on: MDA-N
PC-3 = tested on: PC-3
RXF 393 = tested on: RXF 393
T47D = tested on: T47D

CCCCCCCCOC(CO)CO
GI50 (786-0): > 100 µM (inactive)
GI50 (A498): > 100 µM (inactive)
GI50 (A549): > 100 µM (inactive)
GI50 (ACHN): > 100 µM (inactive)
GI50 (CAKI-1): > 100 µM (inactive)
GI50 (CCRF-CEM): > 100 µM (inactive)
GI50 (COLO 205): > 100 µM (inactive)
GI50 (DLD-1): > 100 µM (inactive)
GI50 (DMS-114): > 100 µM (inactive)
GI50 (DMS-273): > 100 µM (inactive)
GI50 (HCC 2998): > 100 µM (inactive)
GI50 (HCT-116): > 100 µM (inactive)
GI50 (HCT-15): > 100 µM
GI50 (HL-60): > 100 µM (inactive)
GI50 (HOP-18): > 100 µM (inactive)
GI50 (HOP-62): > 100 µM (inactive)
GI50 (HOP-92): 44.6 µM (inactive)
GI50 (HT-29): > 100 µM (inactive)
GI50 (IGROV-1): > 100 µM (inactive)
GI50 (K562): > 100 µM (inactive)
GI50 (KM-20L2): > 100 µM (inactive)
GI50 (LOX IMVI): > 100 µM (inactive)
GI50 (LXFL 529): > 100 µM (inactive)
GI50 (M14): > 100 µM (inactive)
GI50 (M19-MEL): > 100 µM (inactive)
GI50 (MOLT-4): > 100 µM (inactive)
GI50 (Malme-3M): > 100 µM (inactive)
GI50 (NCI-H226): > 100 µM (inactive)
GI50 (NCI-H23): > 100 µM (inactive)
GI50 (NCI-H460): > 100 µM (inactive)
GI50 (OVCAR-3): > 100 µM (inactive)
GI50 (OVCAR-4): > 100 µM (inactive)
GI50 (OVCAR-5): > 100 µM (inactive)
GI50 (OVCAR-8): > 100 µM (inactive)
GI50 (RPMI-8226): > 100 µM (inactive)
GI50 (SF-268): > 100 µM (inactive)
GI50 (SF-295): > 100 µM (inactive)
GI50 (SK-MEL-28): > 100 µM (inactive)
GI50 (SK-MEL-5): > 100 µM (inactive)
GI50 (SK-OV-3): > 100 µM (inactive)
GI50 (SN12C): > 100 µM (inactive)
GI50 (SNB-19): > 100 µM (inactive)
GI50 (SR): > 100 µM (inactive)
GI50 (SW-620): > 100 µM (inactive)
GI50 (TK-10): > 100 µM (inactive)
GI50 (U-251): > 100 µM (inactive)
GI50 (UACC-257): > 100 µM (inactive)
GI50 (UACC-62): > 100 µM (inactive)
GI50 (UO-31): > 100 µM (inactive)

C=CCOC1CC(n2cnc3c(N)ncnc32)OC1CO (configuration not stated)
GI50 (786-0): > 100 µM (inactive)
GI50 (A549): > 100 µM (inactive)
GI50 (ACHN): > 100 µM (inactive)
GI50 (CAKI-1): > 100 µM (inactive)
GI50 (CCRF-CEM): > 100 µM (inactive)
GI50 (COLO 205): > 100 µM (inactive)
GI50 (DLD-1): > 100 µM (inactive)
GI50 (DMS-114): > 100 µM (inactive)
GI50 (DMS-273): > 100 µM (inactive)
GI50 (HCC 2998): > 100 µM (inactive)
GI50 (HCT-116): > 100 µM (inactive)
GI50 (HCT-15): > 100 µM
GI50 (HL-60): > 100 µM (inactive)
GI50 (HOP-62): > 100 µM (inactive)
GI50 (HOP-92): > 100 µM (inactive)
GI50 (HT-29): > 100 µM (inactive)
GI50 (IGROV-1): > 100 µM (inactive)
GI50 (K562): > 100 µM (inactive)
GI50 (KM-20L2): > 100 µM (inactive)
GI50 (KM12): > 100 µM (inactive)
GI50 (LXFL 529): > 100 µM (inactive)
GI50 (M14): > 100 µM (inactive)
GI50 (M19-MEL): > 100 µM (inactive)
GI50 (MOLT-4): > 100 µM (inactive)
GI50 (Malme-3M): > 100 µM (inactive)
GI50 (NCI-H226): > 100 µM (inactive)
GI50 (NCI-H23): > 100 µM (inactive)
GI50 (NCI-H460): > 100 µM (inactive)
GI50 (NCI-H522): > 100 µM (inactive)
GI50 (OVCAR-3): > 100 µM (inactive)
GI50 (OVCAR-4): > 100 µM (inactive)
GI50 (OVCAR-5): > 100 µM (inactive)
GI50 (OVCAR-8): > 100 µM (inactive)
GI50 (RPMI-8226): > 100 µM (inactive)
GI50 (SF-268): > 100 µM (inactive)
GI50 (SF-295): > 100 µM (inactive)
GI50 (SF-539): > 100 µM (inactive)
GI50 (SK-MEL-28): > 100 µM (inactive)
GI50 (SK-MEL-2): > 100 µM (inactive)
GI50 (SK-MEL-5): > 100 µM (inactive)
GI50 (SNB-19): > 100 µM (inactive)
GI50 (SNB-75): 51.1 µM (inactive)
GI50 (SR): > 100 µM (inactive)
GI50 (SW-620): > 100 µM (inactive)
GI50 (TK-10): > 100 µM (inactive)
GI50 (U-251): > 100 µM (inactive)
GI50 (UACC-257): > 100 µM (inactive)
GI50 (UACC-62): > 100 µM (inactive)
GI50 (UO-31): > 100 µM (inactive)
GI50 (XF498): > 100 µM (inactive)

CC[C@@]1(O)C[C@H](OC2CC(N(C)C)C(OC3CC(O)C(OC4CCC(=O)C(C)O4)C(C)O3)C(C)O2)c2c(cc3c(c2O)C(=O)c2c(O)ccc(O)c2C3=O)[C@H]1C(=O)OC (some centres not stated)
GI50 (786-0): < 0.01 µM (active)
GI50 (A549): 6.7e-05 µM (active)
GI50 (ACHN): 5.36e-05 µM (active)
GI50 (BT-549): 0.00113 µM (active)
GI50 (CAKI-1): < 1e-05 µM (active)
GI50 (CCRF-CEM): 8.38e-05 µM (active)
GI50 (COLO 205): 7.55e-05 µM (active)
GI50 (DLD-1): < 1e-05 µM (active)
GI50 (DMS-273): < 1e-05 µM (active)
GI50 (DU-145): 0.00173 µM (active)
GI50 (EKVX): 0.00492 µM (active)
GI50 (HCT-116): 2.32e-05 µM (active)
GI50 (HCT-15): 9.75e-05 µM
GI50 (HL-60): 6.56e-05 µM (active)
GI50 (HOP-18): 0.0128 µM (active)
GI50 (HOP-62): 8.75e-05 µM (active)
GI50 (HOP-92): 0.0008 µM (active)
GI50 (HT-29): 4.83e-05 µM (active)
GI50 (Hs-578T): 0.00366 µM (active)
GI50 (IGROV-1): 5.35e-05 µM (active)
GI50 (K562): 8.83e-05 µM (active)
GI50 (KM12): 8.77e-05 µM (active)
GI50 (LOX IMVI): 2e-05 µM (active)
GI50 (M14): 0.000438 µM (active)
GI50 (MDA-MB-231): 0.00288 µM (active)
GI50 (MDA-MB-435): 0.000929 µM (active)
GI50 (MDA-N): 0.000427 µM (active)
GI50 (MOLT-4): 3.55e-05 µM (active)
GI50 (Malme-3M): 9.06e-05 µM (active)
GI50 (NCI-H226): 5.83e-05 µM (active)
GI50 (NCI-H23): 0.00157 µM (active)
GI50 (NCI-H460): 2.33e-05 µM (active)
GI50 (NCI-H522): 5.28e-05 µM (active)
GI50 (OVCAR-3): 0.000233 µM (active)
GI50 (OVCAR-4): 1.06e-05 µM (active)
GI50 (OVCAR-5): 0.000365 µM (active)
GI50 (OVCAR-8): 0.00233 µM (active)
GI50 (PC-3): 0.000395 µM (active)
GI50 (RPMI-8226): 7.83e-05 µM (active)
GI50 (RXF 393): 0.000344 µM (active)
GI50 (SF-268): 0.000132 µM (active)
GI50 (SF-295): 6.81e-05 µM (active)
GI50 (SF-539): 0.000114 µM (active)
GI50 (SK-MEL-28): 0.000343 µM (active)
GI50 (SK-MEL-2): 7.87e-05 µM (active)
GI50 (SK-MEL-5): 0.000535 µM (active)
GI50 (SK-OV-3): 0.000404 µM (active)
GI50 (SN12C): 4.18e-05 µM (active)
GI50 (SNB-19): 5.51e-05 µM (active)
GI50 (SNB-75): 0.000105 µM (active)
GI50 (SR): 0.000101 µM (active)
GI50 (SW-620): 5.2e-05 µM (active)
GI50 (T47D): 0.000773 µM (active)
GI50 (TK-10): 0.00152 µM (active)
GI50 (U-251): 6.35e-05 µM (active)
GI50 (UACC-257): 0.00202 µM (active)
GI50 (UACC-62): 0.00341 µM (active)
GI50 (UO-31): 4.22e-05 µM (active)
